Source: patent US20170326155A1, “NOVEL PHARM[…] FOR NEUROMUSCULAR CONTRACTURES” (Children's Hospital Medical Center, priority 2016, published 2017)

Columns and labels:
[1] = tested on: shoulder contractures following NBPI; assay: Mouse model of neonatal brachial plexus injury (NBPI), muscle contracture formation; assay type: in vivo, mice; settings: for severity of shoulder contractures: single systemic dose following NBPI, 4 weeks post NBPI, compared to controls, preliminary experiment
Source text: Experimental Model: Unilateral brachial plexus injuries are surgically created at 5 days of age in mice. The immediate paralysis mimics that of the human condition, and can be modulated by different surgical techniques of nerve injury. Within 4 weeks after NBPI, muscle contractures form at the shoulder and elbow, replicating the human contractures. (Not shown.) Muscles can be harvested for analysis of growth and cellular behavior. The use of unilateral injuries preserves the contralateral limb as a control, minimizing the number of mice required.

[2] = tested on: adult skeletal muscle regeneration; settings: not tested in pediatric neuromuscular conditions; cited from earlier work

Compound | contracture severity following NBPI ([1]; neonatal treatment, preliminary) | severity of shoulder contractures [1] | severity of shoulder contractures ([1]; listed as nandrolone) | adult skeletal muscle regeneration [2]
C[C@]12CC[C@H]3[C@@H](CCC4=CC(=O)CC[C@@H]43)[C@@H]1CC[C@@H]2O [Nandrolone] | lessened contracture severity | lessened the severity of shoulder contractures | decreased the severity of the shoulder contracture | –
CCCCc1nc(Cl)c(CO)n1Cc1ccc(-c2ccccc2-c2nn[nH]n2)cc1 [losartan] | – | – | – | improve adult skeletal muscle regeneration
